{
  "source": "paper PMC9141032",
  "about": "(International Journal of Molecular Sciences, 2022)",
  "key": {"[1]": {"test": "Metabolic profiling in human liver microsomes (LC-HRMS)", "assay_type": "in vitro ADME", "description": "(§1) The objective of the study is to evaluate the formation of the main metabolites from B06 in HLM incubations and MLM incubations preceding the in vivo metabolic study, using these same incubations to identify the possible metabolites. […] Reactions without NADPH were also incubated to rule out non-NADPH metabolism or chemical instability in the incubation buffer. Verapamil was included as positive control to monitor incubation course. All reactions were terminated using 60 µL of ice-cold acetonitrile at 0, 5, 15, 30, 45, and 60 min. The plates were centrifugated at 3500 rpm for 15 min. All experiments were conducted in triplicates. Samples were analysed by LC-HMRS in positive ionization mode. Compound incubations without NADPH and compound reference standard were used as interference control for each incubation sample.\nMetabolic profiling of B06 in human liver microsomes\nThe equipment used for the analysis was an Agilent 1290 Infinity UHPC, ABSciex 5600 QTOF Mass Spectrometer, Metabolite Pilot V 1.5 Sofware.\nMethod: ionization mode, electrospray positive; acquisition mode, TOF MS with IDA MS/MS; […]\nAll the tentative identified metabolites have been evaluated using of a score (40 value). This score depend on mass defect, isotope pattern, mass a ccur a cy and MS/MS. In all the cases the score was equal or greater than 68%.\nTable S9. Metabolite time course in HLM incubations for B06\nPeak Description Time Formula m/z Mass R.T. Peak % %\nID incubation error (min) Area Area Score […]"}, "[2]": {"test": "Metabolic profiling in mouse liver microsomes (LC-HRMS)", "assay_type": "in vitro ADME", "description": "as §1\nMetabolic profiling of B06 in mouse liver microsomes\nThe equipment used for the analysis wa s an Agilent 1290 Infinity UHPC, ABSciex 5600 QTOF Mass Spectrometer, Metabolite Pilot V 1.5 Sofware.\nMethod: ionization mode, electrospray positive; acquisition mode, TOF MS with IDA MS/MS; colum, Atlantis T3 C18, 2.1 x 15 mm, 3 μ m; mobile phase, water:acetonitrile: 0.1% formic acid; flow […]\nAll the tentative identified metabolites have been evaluated using of a score (40 value). This score depend on mass defect, isotope pattern, mass accuracy and MS/MS. In all the cases the score was equal or greater than 68%.\nAll analytical determinations of B06 were performed in according to the recommendations of the […]\nTable S10. Metabolite time course in MLM incubations for B06\nPeak Description Time Formula m/z Mass R.T. Peak Area % %\nID incubation error (min) Area Score\n1 Safety testing of drug metabolites. Guidance for industry. U.S. Department of Health and Human Services Food and Drug Administration Center for Drug Evaluation and Research (CDER) March 2020 Pharmacology/Toxicology. https://www.fda.gov/regulatory‐information/search‐fda‐guidance‐ documents/safety‐testing‐drug‐metabolites"}, "SAMP8 murine model": {"test_system": "SAMP8 murine model", "conditions": "cited from earlier work"}, "[3]": {"test_system": "imidazoline I2 receptors (I2-IR)", "design": "method as in ref 32, 33 = [32]; 32. Escolano C. Pallás M. Griñán-Ferré C. Abás S. Callado L.-F. García-Sevilla J.A. Synthetic I 2 Imidazoline Receptor Ligands for Prevention or Treatment of Human Brain Disorders Patent WO 2019/12185 || [33]; PMID 32150414; doi:10.1021/acs.jmedchem.9b02080; 33. Abás S. Rodríguez-Arévalo S. Bagán A. Griñán-Ferré C. Vasilopoulou F. Brocos-Mosquera I. Muguruza C. Pérez B. Molins E. Luque F.J. Bicyclic α-Iminophosphonates as High Affinity Imidazoline I 2 Rec", "conditions": "cited from earlier work"}},
  "data": [
    {"smiles": "CCOP(=O)(O)[C@]1(c2ccccc2)N=C[C@H]2C(=O)N(c3ccc(F)c(Cl)c3)C(=O)[C@H]21", "note": "[Compound 1, ethyl hydrogen [(1R,3aS,6aS)-5-(3-chloro-4-fluorophenyl)-4,6-dioxo-1-phenyl-1,3a,4,5,6,6a-hexahydropyrrolo[3,4-c]pyrrol-1-yl]phosphonate]", "values": [
      {"measurement": "% Area of metabolite in chromatogram", "setting": "[1]; HLM incubation of B06, 15 min", "value": 8.4, "unit": "%"},
      {"measurement": "% Area of metabolite in chromatogram", "setting": "[1]; HLM incubation of B06, 30 min", "value": 17.8, "unit": "%"},
      {"measurement": "% Area of metabolite in chromatogram", "setting": "[1]; HLM incubation of B06, 45 min", "value": 26.2, "unit": "%"},
      {"measurement": "% Area of metabolite in chromatogram", "setting": "[1]; HLM incubation of B06, 60 min", "value": 36, "unit": "%"},
      {"measurement": "% Area of metabolite in chromatogram", "setting": "[1]; HLM incubation of B06, 60 min, listed as M1", "value": 36.0, "unit": "%"},
      {"measurement": "% Area of metabolite in chromatogram", "setting": "[2]; MLM incubation of B06, 5 min", "value": 10.7, "unit": "%"},
      {"measurement": "% Area of metabolite in chromatogram", "setting": "[2]; MLM incubation of B06, 15 min", "value": 30.9, "unit": "%"},
      {"measurement": "% Area of metabolite in chromatogram", "setting": "[2]; MLM incubation of B06, 30 min", "value": 60.9, "unit": "%"},
      {"measurement": "% Area of metabolite in chromatogram", "setting": "[2]; MLM incubation of B06, 45 min", "value": 81.6, "unit": "%"},
      {"measurement": "% Area of metabolite in chromatogram", "setting": "[2]; MLM incubation of B06, 60 min", "value": 88.9, "unit": "%"}
    ]},
    {"smiles": "CCOP(=O)(OCC)C1(c2ccccc2)N=CN(Cc2ccc(F)c(Cl)c2)C1(C)C", "note": "(stereo not shown) [MCR5]", "values": [
      {"measurement": "effect on cognition and hallmarks", "setting": "SAMP8 murine model", "value": "cognitive improvement and amelioration of hallmarks"}
    ]},
    {"smiles": "c1ccc2c(c1)OCC(C1=NCCN1)O2", "note": "(stereo not shown) [idazoxan]", "values": [
      {"measurement": "ratio of I2/α2", "setting": "[3]; I2-IR ([3H]2-BFI) versus α2-AR ([3H]RX821002), human frontal cortex", "value": "non I2/α2 selectivity"},
      {"measurement": "pKi", "setting": "[3]; membranes of post mortem human frontal cortex, against [3H]2-BFI", "value": "7.41 ± 0.63"}
    ]}
  ]
}
